Source: publication PMC8882611, “Corylus avellana: A Source of Diarylheptanoids With α-Glucosidase Inhibitory Activity Evaluated by in vitro and in silico Studies” (Frontiers in Plant Science, 2022)

What was measured:
[1] = molecular target: α-glucosidase enzyme (from Saccharomyces cerevisiae) (Saccharomyces cerevisiae, UniProt P53341); assay: biochemical; details: substrate 4-nitrophenyl α-D-glucopyranoside, pH 7.0, 37°C; samples 200, 300, 400 μM; mean ± SD of three experiments; read-out: α-Glucosidase inhibitory activity IC50 ± SD
α-glucosidase enzyme (from Saccharomyces cerevisiae), sequence (P53341 whole entry): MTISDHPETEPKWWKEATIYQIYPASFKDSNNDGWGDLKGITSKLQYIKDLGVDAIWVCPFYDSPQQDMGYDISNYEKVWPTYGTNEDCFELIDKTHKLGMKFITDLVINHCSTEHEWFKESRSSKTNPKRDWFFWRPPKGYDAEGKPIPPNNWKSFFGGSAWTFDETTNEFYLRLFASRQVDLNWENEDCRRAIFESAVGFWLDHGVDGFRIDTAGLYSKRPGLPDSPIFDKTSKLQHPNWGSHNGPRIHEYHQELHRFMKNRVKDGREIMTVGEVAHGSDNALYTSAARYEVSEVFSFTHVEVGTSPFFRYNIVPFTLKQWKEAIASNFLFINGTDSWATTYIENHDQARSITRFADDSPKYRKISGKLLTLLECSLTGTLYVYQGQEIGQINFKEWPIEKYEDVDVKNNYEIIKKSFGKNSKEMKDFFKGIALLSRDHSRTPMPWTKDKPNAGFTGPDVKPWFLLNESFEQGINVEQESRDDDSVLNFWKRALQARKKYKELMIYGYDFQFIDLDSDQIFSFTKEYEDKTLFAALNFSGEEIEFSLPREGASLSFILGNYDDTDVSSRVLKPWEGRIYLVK
Description: α-Glucosidase inhibitory activity was evaluated as previously reported ([Kilinc et al., 2020]). Briefly, 0.1 M phosphate buffer at pH 7.0 (150 μL) was added to each well; successively 10 μL of samples, dissolved in MeOH at different concentrations (200, 300, and 400 μM) were added; at this point, the reaction was initiated by the addition of 15 μL of the α-glucosidase enzyme (from Saccharomyces cerevisiae) (2 U/mL) in each well, and the plate was incubated for 5 min at 37°C; after 5 min 75 μL of the substrate (2.5 mM) 4-nitrophenyl α-D-glucopyranoside were added, and successively the plate was incubated for 10 min at 37°C. The absorbance was measured at 405 nm before (T0′) and after the incubation with the enzyme (T10′). […] Negative control absorbance (phosphate buffer in place of the sample) was also recorded. Inhibition of the enzyme was calculated, and the results were expressed as IC50 values. All experiments were carried out in triplicate. IC50 values were calculated through non-linear regression using Graphpad Prism 5 Software and expressed as means ± SD (standard deviation). They were considered statistically significant with values of p < 0.05.

[2] = test system: Bacillus cereus, Staphylococcus aureus, Escherichia coli and Pseudomonas aeruginosa; parameters: method as in Cerulli et al., 2017; details: 40 μg/disk; tetracycline as positive control; ref Cerulli et al., 2017; cited from earlier work
[3] = test system: H2O2– and H2O2/Fe2+-induced lipid peroxidation; parameters: method as in Masullo et al., 2015b; details: 10 μM; TBARS assay; ref Masullo et al., 2015b; cited from earlier work
plasma proteins = test system: plasma proteins; parameters: method as in Cerulli et al., 2021; Masullo et al., 2021; details: 10 μM, ref Cerulli et al., 2021, Masullo et al.; cited from earlier work

Compound: O=C1/C=C/CCc2ccc(O)c(c2)-c2cc(ccc2O)CC1 [Alnusone (21), Alnusone]
- IC50 [1]: 154 ± 8.3 µM

Compound: O=C1CCc2ccc(O)c(c2)-c2cc(ccc2O)C[C@H](O)[C@H](O)[C@H]1O [Carpinontriol B (24), Carpinontriol B]
- zones of inhibition [2]: completely comparable to those obtained with tetracycline
- IC50 [1]: 107 ± 6.1 µM

Compound: COc1c2cc(c(OC)c1O)Oc1ccc(cc1)CCC(=O)CC/C=C/2 [Giffonin A (1), Giffonin A]
- IC50 [1]: 184 ± 6.9 µM

Compound: COc1c2cc(c(OC)c1O)Oc1ccc(cc1)[C@@H](O)CC(=O)CC/C=C/2 [Giffonin B (2), Giffonin B]
- IC50 [1]: 164 ± 5.2 µM

Compound: COc1c2cc(c(OC)c1O)Oc1ccc(cc1)CC[C@H](O)CC/C=C\2 [Giffonin C (3), Giffonin C]
- IC50 [1]: 105 ± 6.9 µM

Compound: COc1c2cc(c(OC)c1O)Oc1ccc(cc1)CCC(=O)CC/C=C\2 [Giffonin D (4), Giffonin D]
- IC50 [1]: 108 ± 6.1 µM
- reduction of H2O2-induced lipid peroxidation [3]: more than 60%
- reduction of H2O2/Fe2+-induced lipid peroxidation [3]: > 50%

Compound: COc1c2cc(c(OC)c1O)Oc1ccc(cc1)CCCC[C@H](O)/C=C\2 [Giffonin E (5), Giffonin E]
- IC50 [1]: 167 ± 4.6 µM

Compound: COc1c2cc(c(OC)c1O)Oc1ccc(cc1)CCC(=O)C[C@H](O)/C=C\2 [Giffonin F (6), Giffonin F]
- IC50 [1]: 146 ± 4.3 µM

Compound: COc1c2cc(c(OC)c1O)Oc1ccc(cc1)CC[C@H](O)/C=C/C=C\2 [Giffonin G (7), Giffonin G]
- reduction of oxidation of thiol groups and carbonylation in plasma proteins (plasma proteins): most active compounds
- IC50 [1]: 108 ± 9.2 µM

Compound: COc1c(O)cc2cc1Oc1ccc(cc1)CC[C@H](O)/C=C/C=C\2 [Giffonin H (8), Giffonin H]
- IC50 [1]: 109 ± 2.9 µM
- reduction of H2O2-induced lipid peroxidation [3]: more than 60%
- reduction of H2O2/Fe2+-induced lipid peroxidation [3]: > 50%

Compound: O=C1C=CCCc2ccc(OC3OC(CO)C(O)C(O)C3O)c(c2)-c2cc(ccc2OC2OCC(O)C(O)C2O)CC1 (stereo not drawn) [Giffonin I (9), Giffonin I]
- IC50 [1]: 105 ± 4.9 µM

Compound: COc1c2cc(c(OC)c1O)Oc1ccc(cc1)[C@@H](O)C[C@@H](O)CC/C=C\2 [Giffonin J (10), Giffonin J]
- IC50 [1]: 56.6 ± 9.6 µM

Compound: COc1c2cc(c(OC)c1O)Oc1ccc(cc1)[C@@H](O)C[C@@H](O)/C=C/C=C\2 [Giffonin K (11), Giffonin K]
- reduction of oxidation of thiol groups and carbonylation in plasma proteins (plasma proteins): most active compounds
- IC50 [1]: 70 ± 3.1 µM

Compound: Oc1ccc2cc1-c1cc(ccc1O)C[C@H](O)[C@@H](O)[C@H](O)C[C@@H](O)C2 [Giffonin L (12), Giffonin L]
- IC50 [1]: 172 ± 8.9 µM

Compound: O=C1CCc2ccc(O)c(c2)-c2cc(ccc2O)C[C@H](O)C[C@@H]1O [Giffonin M (13), Giffonin M]
- IC50 [1]: 114 ± 9.7 µM

Compound: O=C1CCc2ccc(O)c(c2)-c2cc(ccc2O)CC(OC2OC(CO)C(O)C(O)C2O)CC1O (stereo not drawn) [Giffonin N (14), Giffonin N]
- IC50 [1]: 128 ± 11.3 µM

Compound: O=C1C[C@@H](O)Cc2ccc(O)c(c2)-c2cc(ccc2O)C[C@H](O)[C@H]1O [Giffonin O (15), Giffonin O]
- IC50 [1]: 124 ± 11.1 µM

Compound: Oc1ccc2cc1-c1cc(ccc1O)C[C@H](O)[C@H](O)C(O)[C@@H](O)[C@H](O)C2 (stereo partly drawn) [Giffonin P (16), Giffonin P]
- IC50 [1]: 55.3 ± 7.7 µM

Compound: O=C1/C=C/CCc2ccc(O)c(c2)Oc2ccc(cc2)CC1 [Giffonin Q (18), Giffonin Q]
- IC50 [1]: 127 ± 5.9 µM

Compound: O=C1/C=C/C=C/c2ccc(O)c(c2)Oc2ccc(cc2)CC1 [Giffonin R (19), Giffonin R]
- IC50 [1]: 128 ± 6.1 µM

Compound: COc1cc2cc(c1O)Oc1ccc(cc1)CCC(=O)/C=C/C=C/2 [Giffonin S (20), Giffonin S]
- IC50 [1]: 126 ± 8.9 µM

Compound: O=C1CCc2ccc(OC3OC(CO)C(O)C(O)C3O)c(c2)-c2cc(ccc2O)CC(O)C(O)C1O (stereo not drawn) [Giffonin T (22), Giffonin T]
- IC50 [1]: 131 ± 6.1 µM

Compound: O=C1Cc2ccc(O)c(c2)-c2cc(ccc2O)C[C@@H](O)[C@@H](O)[C@@H](O)[C@H]1O [Giffonin U (23), Giffonin U]
- zones of inhibition [2]: completely comparable to those obtained with tetracycline
- IC50 [1]: 175 ± 9.8 µM

Compound: O=C1CCc2ccc(O)c(c2)-c2cc(ccc2O)CC[C@@H](O)[C@H]1O [Giffonin V (25), Giffonin V]
- IC50 [1]: 123 ± 4.4 µM

Compound: O=C(CCc1ccc(O)c(O)c1)C[C@H](CCc1ccc(O)c(O)c1)O[C@@H]1OC[C@@H](O)[C@H](O)[C@H]1O [Oregonin (17), Oregonin]
- IC50 [1]: 144 ± 7.2 µM
